Drawing on PubChem BioAssay AID588680 (Southern Research Specialized Biocontainment Screening …, 2011), this text covers IC50 and inhibition for 58 compounds.

Activity calls are given as the source filed them.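 Rule for the calls: active = inhibition of 30% or more at any tested concentration; inactive = the rest.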

In the first assay the target is M1-family alanyl aminopeptidase (PfM1AAP), Plasmodium falciparum 3D7. Briefly: malaria M1 alanyl aminopeptidase inhibitors – biochemical, QFRET, H-Leu-NHMec substrate, selectivity assay for PfM18AAP inhibitor project, dose response (AID 588680). As to conditions: recombinant PfM1AAP, H-Leu-NHMec fluorogenic cleavage.
Regarding `Oc1ccc(CCNc2ccc3ccccc3c2)cc1O`, the IC50 – broadly, the concentration that gives 50% inhibition – is 34.6 µM. As for `Cc1c(-c2ccccc2)[nH]c(-c2ccc(O)c(O)c2)[n+]1O`, the IC50 was 54.3 µM. For `O=S1(=O)c2ccccc2-c2cc(-c3nc(-c4ccc(O)c(O)c4)[nH]c3-c3ccccc3)ccc21`, the IC50 was 39.9 µM. On to `CN(CCc1ccc(O)c(O)c1)c1ccnc2ccccc12`, for which the IC50 is 19.7 µM.

`CC(C)(C)C(=O)OCc1nc(-c2ccc(O)c(O)c2)cs1`: the IC50 was 41.2 µM.

In the case of `O=c1cc(CN2CCN(Cc3ccccc3)CC2)c2ccc(O)c(O)c2o1`, the IC50 was 90.5 µM. `Nc1cc(C(=O)c2ccccc2)ccc1O`: the IC50 is 40.3 µM.

`O=C1c2ccc3c4c(ccc(c24)C(=O)N1O)CC3`: the IC50 was 76.7 µM. Consider `Oc1ccc(CCNc2cccc3ccccc23)cc1O`, for which the IC50 is 29.9 µM. On the same count and under the same terms, in the case of `Oc1ccc(CCNc2cncc3ccccc23)cc1O` it was 35.7 µM; in that of `Oc1ccc(-c2csc(Cc3cc4ccccc4[nH]3)n2)cc1O`, 19.9 µM. In the case of `Oc1ccc(CCN2CCc3ccccc3C2)cc1O`, the IC50 was 77 µM. On the same count and under the same terms, as for `O=C1OCCN1CCc1nc(-c2ccc(O)c(O)c2)cs1`, the figure is 37.7 µM. Still for that read-out and setting: as for `Cc1ccc(-c2nc(-c3ccc(O)c(O)c3)cs2)cc1`, the figure is 37.1 µM. Turning to `Cc1nc(NCCc2ccc(O)c(O)c2)c2c3c(sc2n1)CCC3`, the IC50 is 40 µM. `CCC(C)c1ccc(N)c(O)c1` (stereo not drawn): the IC50 is 42.2 µM. In the case of `Oc1ccc(CCNC(c2ccccc2)c2ccccc2)cc1O`, the IC50 was 55.1 µM.

Consider `CN(CCc1ccc(O)c(O)c1)c1ccncc1`, for which the IC50 is 45.2 µM. On to `CCOc1cccc(-c2nc(-c3ccc(O)c(O)c3)cs2)c1`, for which the IC50 was 40 µM. For `Oc1ccc(CCNc2c3c(nc4ccccc24)CCCC3)cc1O`, the IC50 is 35 µM. Take `O=c1ccc2cc(O)c(O)cc2o1`: the IC50 was 48.2 µM.

Still in this assay, the particulars now being: recombinant PfM1AAP, H-Leu-NHMec fluorogenic cleavage; at 50 µM (top of the series).
Consider `O=C(O)CCCCNc1c2ccccc2nc2ccccc12`, for which the inhibition entry is “inactive”. On to `O=C(O)CCCNc1c2ccccc2nc2ccccc12`, for which the inhibition result is “inactive”.

The same assay, now with this note: recombinant PfM1AAP, H-Leu-NHMec fluorogenic cleavage; at 100 µM (top of the series).
Regarding `COc1cccc(-c2nc(-c3ccc(OC)c(OC)c3)cs2)c1`, the inhibition entry was “inactive”. The same measure, in the same setting: as for `COc1ccc(-c2csc(-c3ccccc3)n2)cc1OC`, the entry is “inactive”; as for `CCC(C)C(=O)Nc1ccccc1N` (stereo not drawn), “inactive”.

For the compound `COc1cccc(CCNc2c3ccccc3nc3ccccc23)c1`, the inhibition entry is “inactive”. Take `O=C(c1ccco1)N1CCN(Cc2cc(=O)c(O)c[nH]2)CC1`: the inhibition result was “inactive”. Still for that read-out and setting: in the case of `COc1ccc(CNc2c3ccccc3nc3ccccc23)cc1OC` it was “inactive”; in that of `NCCNc1c2ccccc2nc2ccccc12`, “inactive”; in that of `COc1ccc(CCN(C)c2ccncc2)cc1OC`, “inactive”. `O=C(c1ccco1)N1CCN(Cc2cc(=O)c(O)co2)CC1`: the inhibition result was “inactive”. The same measure, in the same setting: in the case of `Cc1c(O)c(=O)ccn1CCNc1c2ccccc2nc2ccccc12` it was “inactive”; in that of `COc1ccc(CCNC2CCN(Cc3ccccc3)CC2)cc1OC`, “inactive”; in that of `COc1ccc(CCCNc2c3ccccc3nc3ccccc23)cc1OC`, “inactive”. Take `COc1ccc(CCN2CCc3ccccc3C2)cc1OC`: the inhibition entry was “inactive”. Regarding `COc1ccc(CC(=O)O)cc1OC`, the inhibition result was “inactive”. Take `COc1ccc(-c2nc(-c3ccccc3)c(-c3ccccc3)[nH]2)cc1OC`: the inhibition result was “inactive”. Same read-out and setting: in the case of `COc1ccc(CCN(C)c2c3ccccc3nc3ccccc23)cc1OC` it was “inactive”; in that of `COc1ccc(CCNc2c3ccccc3nc3ccccc23)cc1`, “inactive”. For the compound `COc1ccc(CCN(C)c2ccnc3ccccc23)cc1OC`, the inhibition entry was “inactive”.

In the case of `Oc1ccc(CNc2c3ccccc3nc3ccccc23)cc1O`, the inhibition result was “inactive”. As to `COc1ccc(CCNc2ccc3ccccc3c2)cc1OC`, the inhibition result is “inactive”. Still for that read-out and setting: in the case of `O=c1ccn(CCNc2c3ccccc3nc3ccccc23)cc1OCc1ccccc1` it was “inactive”; in that of `COc1ccc(CCNc2ccncc2)cc1OC`, “inactive”; in that of `COc1ccc(CCN(C)CCc2ccccc2)cc1OC`, “inactive”.

In the case of `O=c1cc(CO)oc(CN2CCCCC2)c1O`, the inhibition result is “inactive”.

`CCC(C)C(=O)Nc1ccccc1O` (stereo not drawn): the inhibition entry is “inactive”. `Oc1ccc(CCNc2c3ccccc3nc3ccccc23)cc1`: the inhibition entry was “inactive”. With `COc1ccc(CCNc2c3c(nc4ccccc24)CCCC3)cc1OC`, the inhibition entry was “inactive”.

Take `COc1ccc(CCC(=O)O)cc1OC`: the inhibition result is “inactive”. The same measure, in the same setting: in the case of `COc1ccc(CCNc2c3ccccc3nc3ccccc23)cc1OC` it was “inactive”; in that of `Cc1c(OCc2ccccc2)c(=O)ccn1CCNc1c2ccccc2nc2ccccc12`, “inactive”. Regarding `COc1ccc(-c2csc(-c3ccccc3OC)n2)cc1OC`, the inhibition entry was “inactive”.

As to `COc1ccc(CCN2CCN(C)CC2)cc1OC`, the inhibition result is “inactive”. Turning to `COc1ccc(CCNc2ccnc3ccccc23)cc1OC`, the inhibition entry is “inactive”. Still for that read-out and setting: as for `COc1ccc(CCNc2cccc3ccccc23)cc1OC`, the entry is “inactive”; as for `COc1ccc(CCNC2CCN(C)CC2)cc1OC`, “inactive”.
